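Each compound was tested at five concentrations against cells in 96-well plates for 48 hours. Here, GI50 denotes the concentration required for 50% inhibition of growth. At the TGI there is no net growth.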
Key:
Experiment in all cases: growth of human tumour cells (NCI), 48 h
[1] = system: UO-31 renal
[2] = system: NCI-H23 lung
[3] = system: U251 CNS
[4] = system: SNB-75 CNS
[5] = system: DU-145 prostate
[6] = system: SNB-19 CNS
[7] = system: HCT-116 colon
[8] = system: OVCAR-3 ovarian
[9] = system: ACHN renal
[10] = system: SK-OV-3 ovarian

| Structure (SMILES) | GI50 [1] | TGI [1] | GI50 [2] | TGI [2] | GI50 [3] | TGI [3] | GI50 [4] | TGI [4] | GI50 [5] | TGI [5] | GI50 [6] | TGI [6] | GI50 [7] | TGI [7] | GI50 [8] | TGI [8] | GI50 [9] | TGI [9] | GI50 [10] | TGI [10] |
| --- | --- | --- | --- | --- | --- | --- | --- | --- | --- | --- | --- | --- | --- | --- | --- | --- | --- | --- | --- | --- |
| COc1cc(N=Nc2ccc(O)c3ncccc23)c2ncccc2c1 | 2.56 µM | 25.3 µM | 3.75 µM | > 100 µM | 3.43 µM | > 100 µM | 4.53 µM | > 100 µM | 4.06 µM | > 100 µM | 4.11 µM | > 100 µM | 2.56 µM | > 100 µM | 4.58 µM | > 100 µM | 2.3 µM | 14.2 µM | 5.57 µM | > 100 µM |
| COc1cc(N(CCC#N)CCC#N)ccc1/C(N=Nc1ccc(Cl)cc1)=N/NC(=O)c1cc(Br)ccc1O | 86.6 µg/mL | > 150 µg/mL | > 150 µg/mL | > 150 µg/mL | 145 µg/mL | > 150 µg/mL | 25 µg/mL | 95.1 µg/mL | 143 µg/mL | > 150 µg/mL | > 150 µg/mL | > 150 µg/mL | 53.2 µg/mL | > 150 µg/mL | 50 µg/mL | > 150 µg/mL | 86.1 µg/mL | > 150 µg/mL | 90.8 µg/mL | > 150 µg/mL |
| COc1ccc(-c2ccc(=O)oc2C#Cc2cc(OC)c(OC)c(OC)c2)cc1O | 0.585 µM | – | 1.17 µM | > 100 µM | 0.358 µM | 4.58 µM | 0.167 µM | 2.92 µM | 0.248 µM | 1.54 µM | 0.612 µM | > 100 µM | 0.249 µM | > 91.9 µM | 0.113 µM | 0.612 µM | 0.628 µM | > 62.1 µM | 0.318 µM | 5.65 µM |

Source: PubChem BioAssay (NCI)
